This is an account of results in ChEMBL document CHEMBL3739335, “Phosphonooxymethyl Prodrug of Triptolide: Synthesis, Physicochemical Characterization, and Efficacy in Human Colon Adenocarcinoma and Ovarian Cancer Xenografts” (J Med Chem, 2015).

Series [1] can be described thus: Half life of the compound.
Series [2] addresses T1, Alkaline phosphatase, tissue-nonspecific isozyme (Bos taurus, UniProt P09487).
T1 sequence (P09487 whole entry): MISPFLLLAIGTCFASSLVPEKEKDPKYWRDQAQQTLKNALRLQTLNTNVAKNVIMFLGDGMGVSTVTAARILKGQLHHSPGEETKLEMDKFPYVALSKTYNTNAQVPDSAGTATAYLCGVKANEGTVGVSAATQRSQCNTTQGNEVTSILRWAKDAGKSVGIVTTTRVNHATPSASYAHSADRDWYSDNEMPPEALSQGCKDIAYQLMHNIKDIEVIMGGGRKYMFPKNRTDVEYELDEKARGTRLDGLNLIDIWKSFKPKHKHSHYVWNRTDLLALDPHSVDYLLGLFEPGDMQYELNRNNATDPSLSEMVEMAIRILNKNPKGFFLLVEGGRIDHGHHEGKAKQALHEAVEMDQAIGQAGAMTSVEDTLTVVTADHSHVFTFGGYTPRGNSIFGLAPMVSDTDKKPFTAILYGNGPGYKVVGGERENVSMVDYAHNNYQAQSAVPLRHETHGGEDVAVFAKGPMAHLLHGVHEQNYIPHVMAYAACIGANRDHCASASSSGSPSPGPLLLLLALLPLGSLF
Put plainly: Drug level in glycine buffer treated with Sodium (((5bS,6aS,7aR,8R,8aS,9aS,9bS,10aS,10bS)-8a-Isopropyl-10b-methyl-3-oxo-1,2,3,5,5b,6,6a,8,8a,9a,9b,10b-dodecahydrotris-(oxireno)[2',3':4b,5;'',3'':6,7;2''',3''':8a,9]phenanthro[1,2-c]furan-8-yl)oxy)methyl Phosphate at pH 9.8 in presence of bovine intestinal mucosal alkaline phosphatase. Conditions: cattle, isolated protein.

Consider `C=O` [FORMALDEHYDE], for which the half-life (in general, the time needed for the level to fall by half in the phase considered) in series [1] was 1.5 min. For the same molecule, the Drug metabolism result in series [2] is on record as “metabolite_detected”. As for `CC(C)[C@]12O[C@H]1[C@@H]1O[C@]13[C@]1(O[C@H]1C[C@H]1C4=C(CC[C@@]13C)C(=O)OC4)[C@@H]2O` [TRIPTOLIDE], the Drug metabolism result in series [2] is listed as “metabolite_detected”.
